Some results are limits rather than exact numbers.

human plasma kallikrein, sequence (P03952 391-638): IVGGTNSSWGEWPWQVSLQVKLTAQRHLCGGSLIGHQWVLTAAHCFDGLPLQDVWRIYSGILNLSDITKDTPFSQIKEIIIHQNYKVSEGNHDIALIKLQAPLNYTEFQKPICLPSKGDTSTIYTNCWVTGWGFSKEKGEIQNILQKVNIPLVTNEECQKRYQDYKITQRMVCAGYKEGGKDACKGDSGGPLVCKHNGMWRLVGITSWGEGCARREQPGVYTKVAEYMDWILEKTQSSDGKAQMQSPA
human plasma kallikrein, sequence (P03952 20-390 partner): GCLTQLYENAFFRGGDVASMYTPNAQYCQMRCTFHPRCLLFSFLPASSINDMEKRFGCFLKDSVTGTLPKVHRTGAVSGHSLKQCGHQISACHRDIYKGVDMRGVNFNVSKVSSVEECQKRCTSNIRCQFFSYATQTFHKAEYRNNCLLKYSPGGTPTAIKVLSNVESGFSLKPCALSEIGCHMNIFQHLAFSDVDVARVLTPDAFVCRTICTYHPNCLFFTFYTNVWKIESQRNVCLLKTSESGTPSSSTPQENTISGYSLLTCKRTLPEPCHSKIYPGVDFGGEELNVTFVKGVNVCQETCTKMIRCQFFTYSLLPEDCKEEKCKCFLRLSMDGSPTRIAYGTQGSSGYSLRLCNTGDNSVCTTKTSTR

The assay concerns the target human plasma kallikrein (Homo sapiens (Human), UniProt P03952). As to the kind of experiment: In vitro enzyme inhibition of human plasma kallikrein (PFR-AMC cleavage). The format is biochemical. Conditions: Pro-Phe-Arg-AMC substrate, 37° C., read-out: hPK IC50. The protocol:
The ability of the compounds disclosed herein to inhibit human plasma kallikrein activity was quantified according to the procedures below.
A 10 mM solution of the test compound was made in DMSO. […] A control tube containing only DMSO is included. 16 μL of each compound test solution was combined with 384 μL of assay buffer (50 mM Tris-HCl pH 7.5, 150 mM NaCl, 0.01% Triton X-100) to yield a “4× test compound buffer stock”.
These solutions are hereby referred to as 4× hPK and 2×PFR-AMC, respectively.
50 μL was removed from this mixture and placed into duplicate wells on a Microfluor 1Black U-bottom microtiter plate (Thermo Scientific). This plate was incubated for 5 minutes at 37° C. To each well, 50 μL of pre-warmed 2×PFR-AMC was added to start the enzymatic reaction. Cleavage of PFR-AMC was monitored in a Biotek Synergy H4 reader set at 37° C. Readings are taken every 43 seconds for 1 hour. […] The IC50 is calculated using the Gen5 (Biotek Instruments).
The ability of the compounds in Table 3 to inhibit human plasma kallikrein activity was determined.
For the molecule `CCc1cnc2ccc(Cc3cc(C(=O)NCc4cc5c(Cl)c[nH]c5cc4F)ccn3)cc2c1` [Example 280, N-((3-chloro-6-fluoro-1H-indol-5-yl)methyl)-2-((3-ethylquinolin-6-yl)methyl)isonicotinamide], the IC50 was less than 100 nM.
On to `CCc1cnc2ccc(Cc3cc(C(=O)NCc4cnc5[nH]cc(Cl)c5c4)ccn3)cc2c1` [Example 281, N-((3-chloro-1H-pyrrolo[2,3-b]pyridin-5-yl)methyl)-2-((3-ethylquinolin-6-yl)methyl)isonicotinamide], for which the IC50 is less than 100 nM.
Next, `CCc1cnc2ccc(Cc3cc(C(=O)NCc4ccc5[nH]cc(Cl)c5c4F)ccn3)cc2c1` [Example 282, N-((3-chloro-4-fluoro-1H-indol-5-yl)methyl)-2-((3-ethylquinolin-6-yl)methyl)isonicotinamide]: less than 100 nM.
`CCc1cnc2ccc(Cc3cc(C(=O)NCc4n[nH]c5ccc(Cl)cc45)ccn3)cc2c1` [Example 284, N-((5-chloro-1H-indazol-3-yl)methyl)-2-((3-ethylquinolin-6-yl)methyl)isonicotinamide]: the IC50 is less than 100 nM.
With `CCc1cnc2ccc(Cc3cc(C(=O)NCc4ccc(N)nc4C)ccn3)cc2c1` [Example 285, N-((6-amino-2-methylpyridin-3-yl)methyl)-2-((3-ethylquinolin-6-yl)methyl)isonicotinamide], the IC50 is less than 100 nM.
Next, `O=C(NCc1cc2c(Cl)c[nH]c2cc1F)c1ccnc(Cc2ccc3ncc(N4CCOCC4)cc3c2)c1` [Example 292, N-((3-chloro-6-fluoro-1H-indol-5-yl)methyl)-2-((3-morpholinoquinolin-6-yl)methyl)isonicotinamide]: 1000 to 10000 nM.
As for `Nc1nccc2cc(CNC(=O)c3ccnc(Cc4ccc5ncc(N6CCOCC6)cc5c4)c3)ccc12` [Example 293, N-((1-aminoisoquinolin-6-yl)methyl)-2-((3-morpholinoquinolin-6-yl)methyl)isonicotinamide], the IC50 is 1000 to 10000 nM.
On to `O=C(NCc1cnc2[nH]cc(Cl)c2c1)c1ccnc(Cc2ccc3ncc(N4CCOCC4)cc3c2)c1` [Example 294, N-((3-chloro-1H-pyrrolo[2,3-b]pyridin-5-yl)methyl)-2-((3-morpholinoquinolin-6-yl)methyl)isonicotinamide], for which the IC50 lay within 1000 to 10000 nM.
To `O=C(NCc1n[nH]c2ccc(Cl)cc12)c1ccnc(Cc2ccc3ncc(N4CCOCC4)cc3c2)c1` [Example 295, N-((5-chloro-1H-indazol-3-yl)methyl)-2-((3-morpholinoquinolin-6-yl)methyl)isonicotinamide] belongs 1000 to 10000 nM; to `COC(c1ccc2ncc(Cl)cc2c1)c1cc(C(=O)NCc2c(C)cc(N)nc2C)ccn1` (stereo not shown) [Example 296, N-((6-amino-2,4-dimethylpyridin-3-yl)methyl)-2-((3-chloroquinolin-6-yl)(methoxy)methyl)isonicotinamide], less than 100 nM.
To `Nc1cnc2ccc(Cc3cc(C(=O)NCc4cc5c(Cl)c[nH]c5cc4F)ccn3)cc2c1` [Example 297, 2-((3-aminoquinolin-6-yl)methyl)-N-((3-chloro-6-fluoro-1H-indol-5-yl)methyl)isonicotinamide] belongs 100 to 1000 nM.
Regarding `Nc1cnc2ccc(Cc3cc(C(=O)NCc4ccc5c(N)nccc5c4)ccn3)cc2c1` [Example 298, N-((1-aminoisoquinolin-6-yl)methyl)-2-((3-aminoquinolin-6-yl)methyl)isonicotinamide], the IC50 was in the range of 100 to 1000 nM.
As to `Nc1cnc2ccc(Cc3cc(C(=O)NCc4n[nH]c5ccc(Cl)cc45)ccn3)cc2c1` [Example 299, 2-((3-aminoquinolin-6-yl)methyl)-N-((5-chloro-1H-indazol-3-yl)methyl)isonicotinamide], the IC50 lay within 1000 to 10000 nM.
Next, `Nc1cnc2ccc(Cc3cc(C(=O)NCc4cnc5[nH]cc(Cl)c5c4)ccn3)cc2c1` [Example 300, 2-((3-aminoquinolin-6-yl)methyl)-N-((3-chloro-1H-pyrrolo[2,3-b]pyridin-5-yl)methyl)isonicotinamide]: 1000 to 10000 nM.
For the molecule `Nc1cnc2ccc(Cc3cc(C(=O)NCc4ccc5[nH]cc(Cl)c5c4F)ccn3)cc2c1` [Example 301, 2-((3-aminoquinolin-6-yl)methyl)-N-((3-chloro-4-fluoro-1H-indol-5-yl)methyl)isonicotinamide], the IC50 was in the range of 100 to 1000 nM.
Next, `O=C(NCc1cc2c(Cl)c[nH]c2cc1F)c1ccnc(Cc2ccc3ncc(N4CCCCC4)cc3c2)c1` [Example 302, N-((3-chloro-6-fluoro-1H-indol-5-yl)methyl)-2-((3-(piperidin-1-yl)quinolin-6-yl)methyl)isonicotinamide]: 1000 to 10000 nM; `Nc1nccc2cc(CNC(=O)c3ccnc(Cc4ccc5ncc(N6CCCCC6)cc5c4)c3)ccc12` [Example 303, N-((1-aminoisoquinolin-6-yl)methyl)-2-((3-(piperidin-1-yl)quinolin-6-yl)methyl)isonicotinamide]: 1000 to 10000 nM.
To `O=C(NCc1ccc2[nH]cc(Cl)c2c1F)c1ccnc(Cc2ccc3ncc(N4CCCCC4)cc3c2)c1` [Example 305, N-((3-chloro-4-fluoro-1H-indol-5-yl)methyl)-2-((3-(piperidin-1-yl)quinolin-6-yl)methyl)isonicotinamide] belongs more than 10000 nM.
Regarding `O=C(NCc1cnc2[nH]cc(Cl)c2c1)c1ccnc(Cc2ccc3ncc(N4CCCCC4)cc3c2)c1` [Example 306, N-((3-chloro-1H-pyrrolo[2,3-b]pyridin-5-yl)methyl)-2-((3-(piperidin-1-yl)quinolin-6-yl)methyl)isonicotinamide], the IC50 fell in the range of 1000 to 10000 nM.
To `O=C(NCc1cc2c(Cl)c[nH]c2cc1F)c1ccnc(Cc2ccc3ncc(N4CCCC4)cc3c2)c1` [Example 307, N-((3-chloro-6-fluoro-1H-indol-5-yl)methyl)-2-((3-(pyrrolidin-1-yl)quinolin-6-yl)methyl)isonicotinamide] belongs 100 to 1000 nM; to `O=C(NCc1n[nH]c2ccc(Cl)cc12)c1ccnc(Cc2ccc3ncc(N4CCCC4)cc3c2)c1` [Example 309, N-((5-chloro-1H-indazol-3-yl)methyl)-2-((3-(pyrrolidin-1-yl)quinolin-6-yl)methyl)isonicotinamide], 100 to 1000 nM.
Next, `O=C(NCc1cnc2[nH]cc(Cl)c2c1)c1ccnc(Cc2ccc3ncc(N4CCCC4)cc3c2)c1` [Example 310, N-((3-chloro-1H-pyrrolo[2,3-b]pyridin-5-yl)methyl)-2-((3-(pyrrolidin-1-yl)quinolin-6-yl)methyl)isonicotinamide]: 100 to 1000 nM; `O=C(NCc1ccc2[nH]cc(Cl)c2c1F)c1ccnc(Cc2ccc3ncc(N4CCCC4)cc3c2)c1` [Example 311, N-((3-chloro-4-fluoro-1H-indol-5-yl)methyl)-2-((3-(pyrrolidin-1-yl)quinolin-6-yl)methyl)isonicotinamide]: 100 to 1000 nM; `O=C(NCc1n[nH]c2ccc(Cl)cc12)c1ccnc(Cc2ccc3ncc(N4CCNCC4)cc3c2)c1` [Example 312, N-((5-chloro-1H-indazol-3-yl)methyl)-2-((3-(piperazin-1-yl)quinolin-6-yl)methyl)isonicotinamide]: 1000 to 10000 nM.
To `O=C(NCc1cc2c(Cl)c[nH]c2cc1F)c1ccnc(Cc2ccc3ncc(N4CCNCC4)cc3c2)c1` [Example 313, N-((3-chloro-6-fluoro-1H-indol-5-yl)methyl)-2-((3-(piperazin-1-yl)quinolin-6-yl)methyl)isonicotinamide] belongs 1000 to 10000 nM.

The values above are taken from patent publication US10023557B2 (LifeSci Pharmaceuticals, Inc., priority 2015, dated 2018).
